The subject of data set [1] is A2058 human melanoma cells. Put plainly: A2058 melanoma xenograft in CD-1 nude mice, combination with DTIC (1.6). It is filed as in vivo, human cells in mice. The note with it: SEQ ID NO:1 10 mg/kg i.v. every other day, DTIC 80 mg/kg i.v. days 6-10. How it is done:
After 52 days the mice were sacrificed and the tumours weighed. […] Mitoxantrone was administered intravenously once at the beginning of the treatments at a dose of 2 mg/kg (FIG. 4A) or once a week for four weeks at a reduced dose of 0.8 mg/kg (FIG. 4B). All treatments were stopped at day 50 (FIG. 4A) or 48 (FIG. 4B), respectively. […] Mitoxantrone was administered intravenously once at the beginning of the treatments at a dose of 2 mg/kg (FIG. 5A) or once a week for four weeks at a reduced dose of 0.8 mg/kg (FIG. 5B). All treatments were stopped at day 42 (FIG. 5A) or 38 (FIG. 5B), respectively. […] A2058 is a metastatic melanoma cell line. […] All treatments were stopped at day 24. […] Taxol was administered intravenously once a week at a dose of 10 mg/kg for three (FIG. 7A) or four weeks (FIG. 7C). Doxorubicin was administered intravenously once a week at a dose of 5 mg/kg for first three weeks (FIG. 7A) or for two weeks (FIG. 7C). All treatments were stopped at day 33 (FIG. 7A) or at day 26 (FIG. 7C), respectively. […] In FIG. 7C, antitumour activities were estimated by the inhibition of tumour volume, which was measured with calipers. Each point represents mean tumour volume calculated from 10 animals per experimental group. […] Taxol was administered intravenously once a week for first three weeks and intraperitoneally once a week for next two weeks at a dose of 10 mg/kg. Cisplatin was administered intravenously once a week for first three weeks and intraperitoneally once a week for next two weeks at a dose of 4 mg/kg. All treatments were stopped at day 40. Antitumour activities were estimated by the inhibition of tumour volume, which was measured with caliper. Each point represents mean tumour volume calculated from 9 animals per experimental group.

The subject of data set [2] is LS513 multi-drug resistant colon carcinoma cells. In words: LS513 multi-drug resistant colon carcinoma xenograft in SCID mice, combination with CPT-11 (2.8). It counts as in vivo, human cells in mice. The note with it: SEQ ID NO:1 10 mg/kg i.v. every other day, CPT-11 20 mg/kg/day i.p. 5 days. The procedure:
BxPC-3 is a gemcitabine resistant call line. […] Gemcitabine was administered intravenously every three days at a dose of 100 mg/kg. Antitumour activities were estimated by the inhibition of tumour volume, which was measured with caliper. Each point represents mean tumour volume calculated from 10 animals per experimental group. […] Hela S3 is a hydroxyurea resistant cell line. […] Hydroxyurea was administered intraperitoneally every day at a dose of 250 mg/kg for 10 days. Cisplatin was administered intravenously once a week for three weeks at a dose of 4 mg/kg. Antitumour activities were estimated by the inhibition of tumour volume, which was measured with caliper. Each point represents mean tumour volume calculated from 10 animals per experimental group. […] Cisplatin was administered intravenously once a week for three weeks at a dose of 4 mg/kg. Taxol was administered intravenously once a week for three weeks at a dose of 10 mg/kg. Antitumour activities were estimated by the inhibition of tumour volume, which was measured with caliper. Each point represents mean tumour volume calculated from 10 animals per experimental group. […] Taxol was administered i.p. once a week at a dose of 10 mg/kg. Antitumour activities were estimated by the inhibition of tumour volume (FIG. 12A), which was measured with calipers. Each point represents mean tumour volume calculated from 10 animals per experimental group. […] Antitumour activities were estimated by the inhibition of tumour volume, which was measured with caliper. Each point represents mean tumour volume calculated from 9-10 animals per experimental group. […] Antitumour activities were estimated by the inhibition of tumour volume, which was measured with caliper. Each point represents mean tumour volume calculated from 10 animals per experimental group. […] Anti-tumour activity was estimated by the inhibition of tumour volume, which was measured with caliper. Each point represents mean tumour volume calculated from 10 animals per experimental group. […] Antitumour activities were estimated by the inhibition of tumour volume, which was measured with caliper. […]

Entries after “also recorded” stand apart in the source; their conditions may differ.

Consider “5′-GGCTAAATCGCTCCACCAAG-3′ (all phosphorothioate, sugars by position and methylation of C not given here) [SEQ ID NO: 1, fully phosphorothioated antisense oligonucleotide that hybridizes to the coding region of R2 mRNA]”, for which the “Tumour weight as % of saline control” value in data set [1] (A2058 (melanoma), CD-1) was 20%; in data set [2] (LS513 (colon) multi-drug resistant (CPT-11 sensitive), SCID), 49%. The “Antitumour effect (tumour weight, FIG. 6)” value in data set [1] (A2058, CD-1 nude mice) is given as “significant delay of tumour growth compared to saline control; also recorded: superior to the inhibitory effects observed with DTIC alone”. Besides, the “Antitumour effect (FIG. 16)” value in data set [2] (LS513, SCID mice) is given as “significant delay of tumour growth compared to saline control; also recorded: as effective as CPT-11”.

Source of the values: US7968526B2, “Antisense oligonucleotides directed to ribonucleotide reductase R2 and uses thereof in the treatment of cancer” (Lorus Therapeutics Inc., priority 2003, dated 2011).
